Results published in patent publication US7449465B2, “Triazolopyrimidine derivatives as glycogen synthase kinase 3 inhibitors” (Janssen Pharmaceutica, N.V., priority 2003, dated 2008).

Legend:
GSK3β = GSK3β (Homo sapiens, UniProt P49841); assay: GSK3beta assay (SPA, biotinylated phosphorylated CREB peptide, ATP-P33); format: biochemical; details: ranges of pIC50 (−log IC50 (M)); 1 μM ATP, room temperature, one hour; read-out: GSK3b pIC50 (converted)
Description: (§1) GSK3beta assays were performed at room temperature in a 100 μl reaction volume of 25 mM Tris (pH 7.4) containing 10 mM MgCl2.6H2O, 1 mM DTI, 0.1 mgiml BSA, 5% glycerol and containing 5.7 ng/μl GSK3β, 5 μM biotinylated phosphorylated CREB peptide, 1 μM ATP, 0.85 μCi/ml ATP-P^33 and a suitable amount of a test compound of formula (I). After one hour, the reaction was terminated by adding 70 μl of Stop mix (0.1 mM ATP, 5 mg/ml streptavidin coated PVT SPA bead pH 11.0). The beads to which the phosphorylated CREB peptide is attached were allowed to settle overnight and the radioactivity of the beads was counted in a microtiterplate scintillation counter and compared with the results obtained in a control experiment (without the presence of a test compound) in order to determine the percentage of GSK3β inhibition. The IC50 value, i.e. the concentration (M) of the test compound at which 50% of GSK3β is inhibited, was calculated from the dose response curve obtained by performing the above-described GSK3β assay in the presence of different amounts of the test compound.

GSK3alpha = GSK3alpha (Homo sapiens, UniProt P49840); assay: GSK3alpha assay (same as the GSK3beta assay, 0.25 ng/μl GSK3alpha); format: biochemical; details: ranges of pIC50 (−log IC50 (M)), 1 μM ATP, read-out: GSK3a pIC50 (converted)
GSK3alpha, sequence (P49840 whole entry, species assumed): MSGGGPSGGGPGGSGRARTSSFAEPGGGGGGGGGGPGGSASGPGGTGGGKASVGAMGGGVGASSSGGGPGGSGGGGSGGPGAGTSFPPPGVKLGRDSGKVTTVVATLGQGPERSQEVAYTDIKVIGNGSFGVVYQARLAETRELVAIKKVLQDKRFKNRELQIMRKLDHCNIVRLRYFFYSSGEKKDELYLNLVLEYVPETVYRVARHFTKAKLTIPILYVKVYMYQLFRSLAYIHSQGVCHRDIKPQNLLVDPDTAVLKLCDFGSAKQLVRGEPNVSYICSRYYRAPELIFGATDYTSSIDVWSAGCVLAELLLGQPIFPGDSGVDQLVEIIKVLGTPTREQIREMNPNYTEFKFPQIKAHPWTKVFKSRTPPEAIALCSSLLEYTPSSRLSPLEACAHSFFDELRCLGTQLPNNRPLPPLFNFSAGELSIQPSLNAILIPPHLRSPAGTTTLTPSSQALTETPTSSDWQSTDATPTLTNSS
Description: as §1
The GSK3alpha assay was performed in the same way as described above for the GSK3beta assay except for the concentration of GSK3alpha which is 0.25 ng/μl.

GSK3β, sequence (P49841 whole entry, species assumed): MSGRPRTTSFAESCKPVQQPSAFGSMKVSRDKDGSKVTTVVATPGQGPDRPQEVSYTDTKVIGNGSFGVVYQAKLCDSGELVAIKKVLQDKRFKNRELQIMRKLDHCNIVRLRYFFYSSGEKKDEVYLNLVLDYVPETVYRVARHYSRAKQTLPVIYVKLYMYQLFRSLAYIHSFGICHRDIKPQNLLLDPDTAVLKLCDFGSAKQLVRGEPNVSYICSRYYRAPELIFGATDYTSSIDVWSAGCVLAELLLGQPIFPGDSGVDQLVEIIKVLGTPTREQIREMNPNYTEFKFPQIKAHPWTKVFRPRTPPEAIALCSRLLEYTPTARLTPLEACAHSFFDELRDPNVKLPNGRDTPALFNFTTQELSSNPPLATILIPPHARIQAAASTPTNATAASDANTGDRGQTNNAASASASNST

SMILES | IC50 (GSK3β) [M] | IC50 (GSK3alpha) [M]
OCCc1ccc(-n2nnc3cnc(Nc4ccc(N5CCOCC5)cc4)nc32)cc1 [Compound 85] | > 1e-07 | < 1e-08
CN1CCN(Cc2ccc(Nc3ncc4nnn(-c5cccc(CC#N)c5)c4n3)cc2)CC1 [Compound 89] | 1e-08 to 1e-07 | < 1e-08
N#CCc1cccc(-n2nnc3cnc(Nc4ccc(CN5CCC(O)CC5)cc4)nc32)c1 [Compound 90] | < 1e-08 | < 1e-08
CN1CCN(CCOc2ccc(Nc3ncc4nnn(-c5cccc(CC#N)c5)c4n3)cc2)CC1 [Compound 93] | 1e-08 to 1e-07 | 1e-08 to 1e-07
CN1CCN(CCCOc2ccc(Nc3ncc4nnn(-c5cccc(CC#N)c5)c4n3)cc2)CC1 [Compound 94] | < 1e-08 | < 1e-08
COCc1cccc(-n2nnc3cnc(Nc4ccc(CN5CCN(C)CC5)cc4)nc32)c1 [Compound 101] | 1e-08 to 1e-07 | < 1e-08
COCc1cccc(-n2nnc3cnc(Nc4ccc(OCCN5CCN(C)CC5)cc4)nc32)c1 [Compound 105] | 1e-08 to 1e-07 | 1e-08 to 1e-07
COCc1cccc(-n2nnc3cnc(Nc4ccc(OCCCN5CCN(C)CC5)cc4)nc32)c1 [Compound 106] | 1e-08 | < 1e-08
COCCOCc1cccc(-n2nnc3cnc(Nc4ccc(N5CCN(C)CC5)cc4)nc32)c1 [Compound 108] | < 1e-08 | 1e-08 to 1e-07
COCCOCc1cccc(-n2nnc3cnc(Nc4ccc(CN5CCN(C)CC5)cc4)nc32)c1 [Compound 109] | 1e-08 to 1e-07 | 1e-08 to 1e-07
COCCOCc1cccc(-n2nnc3cnc(Nc4ccc(CN5CCC(O)CC5)cc4)nc32)c1 [Compound 110] | 1e-08 to 1e-07 | 1e-08 to 1e-07
COCCOCc1cccc(-n2nnc3cnc(Nc4ccc(C(=O)N5CCN(C)CC5)cc4)nc32)c1 [Compound 111] | < 1e-08 | < 1e-08
COCCOCc1cccc(-n2nnc3cnc(Nc4ccc(C(=O)NCCN5CCOCC5)cc4)nc32)c1 [Compound 112] | < 1e-08 | < 1e-08
COCCOCc1cccc(-n2nnc3cnc(Nc4ccc(OCCCN5CCN(C)CC5)cc4)nc32)c1 [Compound 113] | 1e-08 to 1e-07 | 1e-08
COCCOc1cccc(-n2nnc3cnc(Nc4ccc(N5CCN(C)CC5)cc4)nc32)c1 [Compound 130] | 1e-08 to 1e-07 | 1e-08 to 1e-07
COCCOc1cccc(-n2nnc3cnc(Nc4ccc(CN5CCN(C)CC5)cc4)nc32)c1 [Compound 131] | 1e-08 to 1e-07 | 1e-08 to 1e-07
COCCOc1cccc(-n2nnc3cnc(Nc4ccc(C(=O)N5CCN(C)CC5)cc4)nc32)c1 [Compound 133] | 1e-08 to 1e-07 | < 1e-08
COCCOc1cccc(-n2nnc3cnc(Nc4ccc(C(=O)NCCN5CCOCC5)cc4)nc32)c1 [Compound 134] | 1e-08 to 1e-07 | < 1e-08
COCCOc1cccc(-n2nnc3cnc(Nc4ccc(OCCCN5CCN(C)CC5)cc4)nc32)c1 [Compound 135] | 1e-08 to 1e-07 | 1e-08 to 1e-07
CN1CCN(CCOc2ccc(Nc3ncc4nnn(-c5cccc(F)c5)c4n3)cc2)CC1 [Compound 140] | 1e-08 to 1e-07 | < 1e-08
Fc1cccc(-n2nnc3cnc(Nc4ccc(OCCN5CCOCC5)cc4)nc32)c1 [Compound 141] | 1e-08 to 1e-07 | < 1e-08
Fc1cccc(-n2nnc3cnc(Nc4ccc(OCCCN5CCCCC5)cc4)nc32)c1 [Compound 142] | 1e-08 to 1e-07 | 1e-08 to 1e-07
CN1CCN(CCCOc2ccc(Nc3ncc4nnn(-c5cccc(F)c5)c4n3)cc2)CC1 [Compound 143] | 1e-08 to 1e-07 | < 1e-08
Fc1cccc(-n2nnc3cnc(Nc4ccc(OCCCN5CCOCC5)cc4)nc32)c1 [Compound 144] | 1e-08 to 1e-07 | < 1e-08

Second part, the compound after the results:

IC50 (GSK3β) [M] | IC50 (GSK3alpha) [M] | SMILES
< 1e-08 | < 1e-08 | OCCc1cccc(-n2nnc3cnc(Nc4ccc(Nc5ncccn5)cc4)nc32)c1 [Compound 84]
< 1e-08 | < 1e-08 | N#CCc1cccc(-n2nnc3cnc(Nc4cccc(-c5cnco5)c4)nc32)c1 [Compound 86]
< 1e-08 | < 1e-08 | CN1CCN(C(=O)c2ccc(Nc3ncc4nnn(-c5cccc(CC#N)c5)c4n3)cc2)CC1 [Compound 91]
< 1e-08 | < 1e-08 | N#CCc1cccc(-n2nnc3cnc(Nc4ccc(C(=O)NCCN5CCOCC5)cc4)nc32)c1 [Compound 92]
< 1e-08 | < 1e-08 | NC(=O)Cc1cccc(-n2nnc3cnc(Nc4cccc(-c5cnco5)c4)nc32)c1 [Compound 95]
< 1e-08 | < 1e-08 | Nc1nccc(-c2cccc(Nc3ncc4nnn(-c5cccc(CO)c5)c4n3)c2)n1 [Compound 97]
< 1e-08 | < 1e-08 | COCc1cccc(-n2nnc3cnc(Nc4cccc(-c5cnco5)c4)nc32)c1 [Compound 98]
< 1e-08 | < 1e-08 | COCc1cccc(-n2nnc3cnc(Nc4cccc(-c5nnnn5C)c4)nc32)c1 [Compound 99]
< 1e-08 | < 1e-08 | COCc1cccc(-n2nnc3cnc(Nc4cccc(-c5ccnc(N)n5)c4)nc32)c1 [Compound 100]
1e-08 to 1e-07 | 1e-08 to 1e-07 | COCc1cccc(-n2nnc3cnc(Nc4ccc(CN5CCC(O)CC5)cc4)nc32)c1 [Compound 102]
< 1e-08 | < 1e-08 | COCc1cccc(-n2nnc3cnc(Nc4ccc(C(=O)N5CCN(C)CC5)cc4)nc32)c1 [Compound 103]
< 1e-08 | < 1e-08 | COCc1cccc(-n2nnc3cnc(Nc4ccc(C(=O)NCCN5CCOCC5)cc4)nc32)c1 [Compound 104]
< 1e-08 | < 1e-08 | NCc1cccc(-n2nnc3cnc(Nc4cccc(-c5cnco5)c4)nc32)c1 [Compound 114]
< 1e-08 | < 1e-08 | CC(=O)NCc1cccc(-n2nnc3cnc(Nc4cccc(-c5nnnn5C)c4)nc32)c1 [Compound 116]
> 1e-09 | < 1e-08 | CC(=O)NCc1cccc(-n2nnc3cnc(Nc4cccc(-c5ccnc(N)n5)c4)nc32)c1 [Compound 117]
1e-08 to 1e-07 | 1e-08 to 1e-07 | CC(C)CC(=O)NCc1cccc(-n2nnc3cnc(Nc4cccc(-c5cnco5)c4)nc32)c1 [Compound 120]
< 1e-08 | 1e-08 | CC(C)CC(=O)NCc1cccc(-n2nnc3cnc(Nc4cccc(-c5ccnc(N)n5)c4)nc32)c1 [Compound 121]
< 1e-08 | < 1e-08 | COCC(=O)NCc1cccc(-n2nnc3cnc(Nc4ccc(-c5cnco5)cc4)nc32)c1 [Compound 123]
< 1e-08 | < 1e-08 | CCOC(=O)NCc1cccc(-n2nnc3cnc(Nc4cccc(-c5cnco5)c4)nc32)c1 [Compound 125]
1e-08 to 1e-07 | < 1e-08 | COc1cccc(-n2nnc3cnc(Nc4cccc(-c5nnn[nH]5)c4)nc32)c1 [Compound 127]
< 1e-08 | < 1e-08 | COc1cccc(-n2nnc3cnc(Nc4cccc(-c5nnnn5C)c4)nc32)c1 [Compound 128]
1e-08 to 1e-07 | 1e-08 to 1e-07 | COc1cccc(-n2nnc3cnc(Nc4cccc(N5CCN(C)CC5)c4)nc32)c1 [Compound 129]
1e-08 to 1e-07 | 1e-08 to 1e-07 | O=S(=O)(NCCNc1ncccn1)c1cccc(Nc2ncc3nnn(-c4cccc(F)c4)c3n2)c1 [Compound 136]
< 1e-08 | < 1e-08 | Fc1cccc(-n2nnc3cnc(Nc4ccc(-c5nn[nH]n5)cc4)nc32)c1 [Compound 138]
